Data on one molecule can be found in patent publication US20230242936A1, “DUAL PROMOTER SYSTEMS” (Seattle Children's Hospital (dba Seattle Children's …, priority 2020, published 2023).

This experiment concerns CA-STAT5aER. Nature of the experiment: Logic gate system with CA-STAT5aER payload, target reporter gene expression. The experiment is classed as cell-based. To be noted: host cells co-cultured with CD19+ cells and treated with tamoxifen. For orientation: In a reporter assay the amount or activity of a reporter protein is the signal.

Protocol: A logic gate system similar to the system depicted in FIG. 9 and FIG. 10 are examined. Dual promoter nucleic acids are prepared and introduced into host cells. The nucleic acids include an inducible iSynPro promoter and either a constitutively activated signal transducer and activator of transcription 5a (CA-STAT5a) protein (FIG. 9), a fusion protein of CA-STAT5a and of an estrogen receptor (CA-STAT5aER) (FIG. 10), or an alternative fusion protein of CA-STAT5a and of an estrogen receptor (CA-STAT5bER). Host cells are stimulated with Raji cells (CD19+), or PMA/ionomycin and are analyzed by FACS analysis for GFP and EGFRt expression.

Consider `CC/C(=C(\c1ccccc1)c1ccc(OCCN(C)C)cc1)c1ccccc1` [tamoxifen, 2-(4((1Z)-1,2-diphenyl-1-butenyl)phenoxy)-N,N-dimethyl-ethanamine], for which the “target reporter gene expression” value is listed as “express target reporter gene”.
